In ChEMBL document CHEMBL5113393, “Discovery of 2-((2-methylbenzyl)thio)-6-oxo-4-(3,4,5-trimethoxyphenyl)-1,6-dihydropyrimidine-5-carbonitrile as a novel and effective bromodomain and extra-terminal (BET) inhibitor for the treatment of sepsis” (Eur J Med Chem, 2022):
Calls of active or inactive are those of the source. The rule behind the calls is not given here.

Legend:
[1] = test system: RAW264.7; test: Antiinflammatory activity in mouse RAW264.7 cells assessed as reduction in LPS-induced IL-6 level at 5 to 10 uM preincubated for 2 hrs followed by LPS stimulation and measured after 22 hrs by ELISA; format: functional, cell-based; settings: dose 5-10 µM, time 24.0 hrs
[2] = test system: RAW264.7; test: Antiinflammatory activity in mouse RAW264.7 cells assessed as reduction in LPS-induced IL-6 mRNA expression preincubated for 2 hrs followed by LPS stimulation and measured after 22 hrs by RT-qPCR analysis; format: functional, cell-based; settings: dose 5-25 µM, time 24.0 hrs, DDE = dose-dependent effect
[3] = test system: Mus musculus; test: Protection against LPS-induced sepsis in C57BL/6 mouse model assessed as reduction in white secretion from eyes at 30 mg/kg, ip qd administered for 3 days followed by LPS stimulation; format: functional, organism-based; settings: time 3.0 day
[4] = test system: RAW264.7; test: Antiinflammatory activity in mouse RAW264.7 cells assessed as reduction in LPS-induced TNF-alpha mRNA expression preincubated for 2 hrs followed by LPS stimulation and measured after 22 hrs by RT-qPCR analysis; format: functional, cell-based; settings: dose 5-25 µM, time 24.0 hrs, DDE = dose-dependent effect
[5] = test system: Mus musculus; test: Antiinflammatory activity against LPS-induced sepsis in C57BL/6 mouse model assessed as reduction in IL-6 level at 15 mg/kg, ip qd administered for 3 days followed by LPS stimulation and measured after 12 hrs by ELISA; format: functional, organism-based; settings: time 84.0 hrs
[6] = test system: Mus musculus; test: Protection against LPS-induced sepsis in C57BL/6 mouse model assessed as reduction in hypothermia administered intraperitoneally daily for 3 days followed by LPS stimulation for 12 hrs and measured every 1 hr by digital thermometer; format: functional, organism-based; settings: dose lower […], dose upper 30.0 mg/kg, route ip, time 84.0 hrs, DDE = dose-dependent effect
[7] = test system: RAW264.7; test: Antiinflammatory activity in mouse RAW264.7 cells assessed as inhibition of LPS-induced NO production at 10 uM preincubated for 2 hrs followed by LPS stimulation and measured after 22 hrs by Griess reagent-based assay relative to control; format: functional; settings: time 24 hrs
[8] = test system: RAW264.7; test: Antiinflammatory activity in mouse RAW264.7 cells assessed as inhibition of LPS-induced NO production at 5 uM preincubated for 2 hrs followed by LPS stimulation and measured after 22 hrs by Griess reagent-based assay relative to control; format: functional; settings: time 24 hrs
[9] = test system: Mus musculus; test: Protection against LPS-induced sepsis in C57BL/6 mouse model assessed as increase in survival rate at 30 mg/kg, ip qd administered for 3 days followed by LPS stimulation and measured every 2 hrs for 120 hrs (reference value: 10%); format: functional
[10] = test system: Mus musculus; test: Protection against LPS-induced sepsis in C57BL/6 mouse model assessed as improvement in orbital movement at 30 mg/kg, ip qd administered for 3 days followed by LPS stimulation; format: functional, organism-based; settings: time 3.0 day
[11] = test system: Mus musculus; test: Protection against LPS-induced sepsis in C57BL/6 mouse model assessed as improvement in mobility at 30 mg/kg, ip qd administered for 3 days followed by LPS stimulation; format: functional, organism-based; settings: time 3.0 day
[12] = test system: Mus musculus; test: Antiinflammatory activity against LPS-induced sepsis in C57BL/6 mouse model assessed as reduction in TNF-alpha level at 15 mg/kg, ip qd administered for 3 days followed by LPS stimulation and measured after 12 hrs by ELISA; format: functional, organism-based; settings: time 84.0 hrs
[13] = target: Bromodomain-containing protein 4 (Homo sapiens, UniProt O60885); test: Inhibition of BRD4 BD1 (unknown origin) using FAM-labeled JQ-1 as fluorescent substrate assessed as inhibition constant incubated for 30 mins by competitive fluorescence polarization method
[14] = test system: RAW264.7; test: Antiinflammatory activity in mouse RAW264.7 cells assessed as reduction in LPS-induced IL-1beta mRNA expression preincubated for 2 hrs followed by LPS stimulation and measured after 22 hrs by RT-qPCR analysis; format: functional, cell-based; settings: dose 5-25 µM, time 24.0 hrs, DDE = dose-dependent effect
[15] = test system: Mus musculus; test: Protection against LPS-induced sepsis in C57BL/6 mouse model assessed as increase in survival rate at 15 mg/kg, ip qd administered for 3 days followed by LPS stimulation and measured every 2 hrs for 120 hrs (reference value: 10%); format: functional
[16] = test system: RAW264.7; test: Antiinflammatory activity in mouse RAW264.7 cells assessed as reduction in LPS-induced TNF-alpha level at 5 to 10 uM preincubated for 2 hrs followed by LPS stimulation and measured after 22 hrs by ELISA; format: functional, cell-based; settings: dose 5-10 µM, time 24.0 hrs

What does the source list for `COc1cc(-c2nc(SCc3ccccc3C)[nH]c(=O)c2C#N)cc(OC)c1OC`?
Activity [1]: Active; Activity [2]: Dde; Activity [3]: Active; Activity [4]: Dde; Activity [5]: Active; Activity [6]: Dde; inhibition at 10 µM [7]: 99.8%; inhibition at 5 µM [8]: 74.2%; survival at 30 mg/kg [9]: 80%; Activity [10]: Active; Activity [11]: Active; Activity [12]: Active; Ki [13]: 830 nM; Activity [14]: Dde; survival at 15 mg/kg [15]: 50%; Activity [16]: Active
